On to `O=c1cc(N2CCOc3ccccc32)oc2c1ccc1ccccc12`, for which the melting point lay within 78 to 79 °C.

`O=C(O)Cc1ccccc1Sc1ccc(F)c(Cl)c1` yielded a melting point of 85 to 87 °C.

As to `CC1(C)SC(C)(C)C1C(=O)O`, the melting point lay in the range of 149 to 151 °C.

For `CC(=O)C(C)(C)Cc1cc(C(C)(C)C)c(O)c(C(C)(C)C)c1`, the melting point stood at 75 °C.

With `CCOC(=O)N1CCN(c2ccc(C(=O)CCc3ccc(N)cc3)cc2)CC1`, the melting point lay in the range of 106 to 107 °C.

For the compound `O=C(O)CCCCCOc1cccc(CCCCCCOc2ccc3c(c2CCCc2ccccc2)OCCC3=O)c1CCC(=O)O`, the melting point lay within 97 to 98 °C.

`CCCCCCCCOc1ccc(CCC(N)(CO)CCC)cc1` (centres undefined) returned a melting point of 43 to 47 °C.

`C=CCOC(=O)C(C#N)=C(SC)SC` yielded a melting point of 36 to 37.5 °C.

Regarding `CC(C)Sc1ccc(NC(=O)c2cc(Cl)ccc2NS(=O)(=O)c2ccc(Cl)cc2)cc1`, the melting point was 168 to 169 °C.

`COc1ccc2cc(-c3ncn[nH]3)ccc2n1`: the melting point was 198 to 200 °C.

Regarding `CCOC(=O)C(=O)Nc1ccc(NS(C)(=O)=O)cc1`, the melting point lay in the range of 136 to 139 °C.

`CCOC(=O)c1ccccc1Nc1ccc(OC)cc1C` registered a melting point of 42 to 43 °C.

The compound `Clc1ccc2cccc(-c3cccc4ccccc34)c2n1` returned a melting point of 133 to 135 °C.

With `O=C1SCC(O)=C1Cc1ccc(Cl)c(Cl)c1`, the melting point lay within 239 to 240 °C.

The compound `CC(=O)Nc1cc(CN2CCCCC2)c(O)c2c1CCCC2` displayed a melting point of 166 to 167 °C.

In the case of `CCOP(=O)(Cc1ccnc(C(N)=O)c1)OCC`, the melting point fell in the range of 140 to 142 °C.

For `CC(C)N[C@H](CO)Cc1ccccc1`, the melting point is 65 to 66 °C.

For the compound `CN1C(=O)N(C)C(=O)C(C(N)=O)(c2ccc(Cl)cc2)C1=O`, the melting point lay within 225 to 227 °C.

The compound `CSc1ccc(C(=O)C(C#N)C(=O)C(C)(C)C)c(Cl)c1` (centres undefined) displayed a melting point of 97 to 99 °C.

`O=C(O)c1oc(=O)c2ncccc2c1-c1ccccc1` yielded a melting point of 288 to 290 °C.

With `CCCCCCCCCC(=O)Oc1ccc(N(CC(=O)O)CC(=O)O)cc1OC(=O)CCCCCCCCC`, the melting point was 131 to 133 °C.

As for `CCOC(=O)C(=C1NCCCS1)[N+](=O)[O-]`, the melting point lay within 100 to 102 °C.

`CC(=O)Oc1ccc(C(=O)O)cc1C(C)(C)C` registered a melting point of 123 to 125 °C.

Compound `O=C(c1nc2ccccc2s1)C1CCN(CCc2ccccc2)CC1` gave a melting point of 108 to 110 °C.

As to `Cc1cc(F)ccc1-c1nc(NCCO)nc2c1ccc(=O)n2-c1ccccc1F`, the melting point lay in the range of 120 to 124 °C.

As to `CC1(O)CSC(=S)N1c1ccccn1` (centres undefined), the melting point came out at 120 °C.

On to `O=c1[nH]cnc2cccc(Br)c12`, for which the melting point fell in the range of 239 to 240 °C.

`c1ccc(C(Sc2nc3ccccc3[nH]2)(c2ccccc2)c2ccccc2)cc1` displayed a melting point of 256 °C.

`CC(=O)COc1ccc(N2N=C3c4ccccc4SCC3CC2=O)cc1` (centres undefined) yielded a melting point of 177 to 180 °C.

In turn, `CC(C)(CCC#N)c1ccc(C(=O)Nc2cn3cc(Cl)ccc3n2)cc1` showed a melting point of 198 to 199 °C.

`O=C(C=NO)Nc1ccccc1F` yielded a melting point of 120 °C.

`COc1cc(Cl)cc(COc2cccc(OCc3ccc4ccccc4n3)c2)c1OCC(=O)O` had a melting point of 185 to 190 °C.

Take `Cc1ccc(C)c(C2C(=O)CC(C)(C)CC2=O)c1`: the melting point was in the range of 168 to 170 °C.

For `Brc1ccc(-c2cn([C@H]3CN4CCC3CC4)nn2)s1`, the melting point was 146 °C.

For the compound `Nc1ccccc1NCC12CC3CC(CC(C3)C1)C2`, the melting point is 101 to 104 °C.

`Cc1oc(-c2cccc(-c3ccccc3)c2)nc1CCOc1cccc(OC(C)(C)C(=O)O)c1` had a melting point of 67 to 71 °C.

`CC[C@@H](c1ccccc1)N(Cc1ccc(C(=O)O)cc1)S(=O)(=O)c1ccc(F)c(F)c1`: the melting point was in the range of 108 to 109 °C.

`Cc1cc(O)c(S(=O)CCC(C)C)c(=O)o1` (centres undefined) displayed a melting point of 80 to 81 °C.

`Cc1c(C(F)(F)F)cnn(-c2cc(OCC3CCC3)c(Cl)cc2F)c1=O` registered a melting point of 85.3 °C.

Regarding `O=C1c2ccccc2C(=O)N1Cc1noc(-c2ncn3c2[C@@H]2CCN2C(=O)c2sccc2-3)n1`, the melting point is 155 to 157 °C.

With `CCCCCCCCCc1ccc(C(=O)CCCCC(=O)O)cc1`, the melting point was in the range of 29 to 31 °C.

As for `O=C(c1cc(Cl)cc(Cl)c1)N1CCN(Cc2ccccc2)C[C@H]1Cc1c[nH]c2ccccc12`, the melting point was in the range of 93 to 98 °C.

For `Cc1ccc(C(=O)c2noc(CC#N)n2)cc1`, the melting point was 76 to 78 °C.

`O=C(O)CC(NS(=O)(=O)c1ccc2ccccc2c1)c1ccccc1` (centres undefined) gave a melting point of 123 to 126 °C.

`CCOc1cc2c(Nc3cc(OC)c(Cl)cc3Cl)c(C#N)cnc2cc1OCC1CCN(C)CC1`: the melting point lay in the range of 182 to 186 °C.

On to `COC(=O)c1csc(-c2snnc2-c2ccccc2)n1`, for which the melting point turned out to be 124 °C.

For the compound `O=C1[C@H]2CCC[C@H]2Nc2ccccc2N1Cc1cccc([N+](=O)[O-])c1` (relative stereo), the melting point lay within 169 to 171 °C.

Compound `O=C1C(=Cc2ccccc2)c2ccccc2N1C1=NCCS1` displayed a melting point of 120 to 125 °C.

Compound `O=S(=O)(CCO)c1cc2c(Nc3cccc(Br)c3)ncnc2cn1` displayed a melting point of 208 to 209 °C.

`O=C(NC/C=C/c1ccccc1)c1ccoc1` yielded a melting point of 115 °C.

In turn, `CC1(C)C(=O)C(C)(C)c2cc(CCN3CCN(c4nsc5ccccc45)CC3)ccc21` registered a melting point of 122 to 126 °C.

In turn, `CC(=O)N[C@@H](CSC(=O)C(C)(C)C)C(=O)NCCSC(=O)C(C)(C)C` registered a melting point of 109 to 111 °C.

In turn, `CC(C)=NNc1ccc(OCC(C)(C)NCC(O)COc2ccccc2C#N)nn1` (centres undefined) displayed a melting point of 126 to 128 °C.

Consider `O=P(O)(O)C(O)c1ccccc1` (centres undefined), for which the melting point is 160 to 162 °C.

Compound `COc1cc2c(c(OC(C)=O)c1)C1CCC3(C)C(OC(C)=O)=CCC3C1CC2` (centres undefined) gave a melting point of 118 °C.

The compound `CC(C)(C)OC(=O)N1CCC(OCc2ccccc2)C1CC(=O)Cn1cnc2ccncc2c1=O` (centres undefined) showed a melting point of 221 °C.

Take `CC(=O)NC(=O)Nc1ccc(OS(=O)(=O)c2cccc(C(F)(F)F)c2)cc1N`: the melting point was 182 °C.

Regarding `CCOC(=O)c1cccc(NC(=O)C(COS(C)(=O)=O)NS(=O)(=O)c2ccc(Cl)cc2)c1` (racemic), the melting point was in the range of 125 to 129 °C.

`NC(c1ccncc1)C1CCN(C2CCC(O)(CC(=O)O)CC2)CC1` (centres undefined) displayed a melting point of 266 °C.

`O=C(O)Cc1ccnc2c(NC(=O)c3c(Cl)cccc3Cl)cccc12` yielded a melting point of 228 to 230 °C.

On to `CN1CCC(CNC(=O)c2ccc(-c3[nH]nc4c3C(=O)c3c(NC(=O)NN5CCOCC5)cccc3-4)s2)C1` (centres undefined), for which the melting point was in the range of 151 to 153 °C.

In turn, `N#Cc1ccc(Nc2nc(Oc3c(Br)cc(CO)cc3Br)ccc2[N+](=O)[O-])cc1` had a melting point of 209 to 213 °C.

For `COC(=O)CS(=O)Cc1cccc(-c2nc(=O)c3ccccc3s2)n1` (centres undefined), the melting point was in the range of 150 to 151 °C.

`COC(=O)COc1ccc(Cn2c(-c3ccc(OC4CCCC4)cc3)c(C)c3cc(OCc4ccccc4)ccc32)cc1`: the melting point fell in the range of 96 to 98 °C.

The compound `COc1ccc(-c2ccc(COc3cc4c(cc3CCN(CCCCC(=O)O)Cc3ccc(C(=O)O)cc3)CCCC4)cc2)cc1` registered a melting point of over 240 °C.

`COc1ccc2c(C)c(CCO)c(=O)oc2c1OC`: the melting point lay in the range of 113 to 114 °C.

In the case of `CC(C)c1nn(-c2ccc(C(F)(F)F)cn2)cc1CCCOc1cc(CCC(=O)O)n(C)n1`, the melting point is 131 to 132 °C.

`COc1cc(Nc2c(C#N)cnc3cc(I)ccc23)c(Cl)cc1Cl` returned a melting point of 243 to 245 °C.

As to `CCCCCNC(=O)[C@H](Cc1ccc(OCC(=O)O)c(-c2nn[nH]n2)c1)NC(=O)[C@H](Cc1ccccc1)NC(=O)OC(C)(C)C`, the melting point lay within 121 to 123 °C.

`COCC(=O)N(c1c(C)cccc1N)C(C)C(=O)OC` (centres undefined) yielded a melting point of 86 to 88 °C.

Compound `COC(=O)c1cccc(CC(C)NCC(O)c2ccc(O)c(CO)c2)c1` (centres undefined) had a melting point of 60 to 70 °C.

The compound `COC(=O)Nc1cccc(C)c1COc1cccn2c(C=O)c(C)nc12` registered a melting point of 196 to 198 °C.

As for `Cn1c(-c2ccc(C(O)(C(F)(F)F)C(F)(F)F)cc2)cc2ccccc2c1=O`, the melting point lay within 265 to 266 °C.

`O=c1oc2c(c(O)c1Sc1ccc(Cl)cc1)c(=O)n(Cc1ccccc1)c1ccccc21` had a melting point of 273 to 275 °C.

`CC1(C)COC(C)(C)N1C(=O)OCCN(Cc1ccccc1)Cc1ccccc1` came in with a melting point of 32 °C.

With `CCOC(=O)c1cn(C2CC2)c2cc(F)c(F)c(C)c2c1=O`, the melting point lay within 185 to 187 °C.

The compound `O=c1cc(-c2ccccc2)oc2cccc(F)c12` yielded a melting point of 144 to 145 °C.

Compound `CCOC(=O)N1CC1C(N)=O` (centres undefined) registered a melting point of 125 to 128 °C.

Compound `COc1ccc(C=CC(=O)Nc2c(-c3ccccc3C)c3cc4c(cc3oc2=O)CCC4)cc1OC` had a melting point of 159 to 160 °C.

With `COc1ccc(C2=NN(CCCCCCNCC(O)c3ccc(N)c(C#N)c3)C(=O)C3CCCCC23)cc1OC` (centres undefined), the melting point is 101 to 103 °C.

With `O=C1CCC(c2ccccc2)(c2ccccc2)[C@@H]2CN(C(=O)Cc3ccccc3)C[C@H]12` (racemic), the melting point came to 173 °C.

Regarding `NC(=O)c1cc2cc(N3CCNCC3)ccc2o1`, the melting point is 252 to 255 °C.

Consider `COc1cc(-c2csc(-n3c(C)ccc3C)n2)c(OC)cc1C`, for which the melting point was 92 to 93 °C.

As to `Nc1cccc(CSCCNC(=O)c2c(Cl)cccc2Cl)c1`, the melting point is 55 to 56 °C.

Consider `FC(F)(F)c1ccc(-c2cc(Cl)c3ccccc3n2)cc1`, for which the melting point was in the range of 53 to 55 °C.

Compound `Nc1cccc(CCN2CCN(c3nsc4ccccc34)CC2)c1` registered a melting point of 108 °C.

As for `CCNc1nc(N)nc2c1ncn2C1C=CC(CO)C1` (centres undefined), the melting point fell in the range of 171 to 173 °C.

The compound `O=C(C[C@H](C(=O)N[C@H](COC(=O)OCc1ccccc1)c1ccccc1)n1ccc(-c2ccc(-c3ccncc3)cc2)c1)OCc1ccccc1` registered a melting point of 138 to 140 °C.

Take `CCCCCCCCOC(=O)N(C[C@H](O)[C@@H](O)[C@H](O)[C@H](O)CO)C(C)CC` (some centres undefined): the melting point was 101 °C.

Values taken from a melting point compilation (Tetko et al.; mined from patent text by program, amines drawn as free bases though some values may be those of a salt).
